In patent US20070167450A1, “Agent for treating chronic pelvic pain syndrome” (Astellas Pharma Inc., priority 2003, published 2007):

What was measured:
[1] = system: Rat Antigen-Induced Cystitis Model; assay: Rat antigen-induced cystitis model: peroxidase activity in bladder extract; format: in vivo, Brown Norway (BN) female rats; settings: bladder removed after 24 hours, saline group 0%, control group 100%
Protocol: Efficacy of PDE 4 Inhibitors in Rat Antigen-Induced Cystitis Model
Antigen sensitization was carried out by intraperitoneally administering physiological saline containing ovalbumin (OA, 1 mg/ml)-aluminum hydroxide gel (Alum, 20 mg/ml) to Brown Norway (BN) female rats, at a dose of 1 ml per animal for 3 continuous days. After completion of the sensitization, a urethral catheter was attached to each animal under anesthesia, 3% OA/physiological saline was injected into the bladder to induce cystitis, and the resulting animals were used as the control group. Also, a group in which physiological saline was injected into the bladder of each sensitized rat was used as the physiological saline group. A group in which compound A (3 mg/kg), roflumilast (3 mg/kg) or cilomilast (30 mg/kg) was orally administered 1 hour before the intravesical antigen injection was used as a compound A administration group, a roflumilast administration group or a cilomilast administration group. After 24 hours of the intravesical antigen injection, the bladder was removed under pentobarbital anesthesia, and bladder extract was prepared in accordance with the method of Malley et al. (Physiological Genomics, (USA), 2002, vol. 9, no. 1, pp. 5-13). Peroxidase activity in the bladder extract was measured in accordance with the method of Bradley et al. (The Journal of Investigative Dermatology, (England), March 1982, vol. 78, no. 3, pp. 206-9) using human myeloperoxidase (manufactured by Sigma) as the standard, and the results were expressed by defining the peroxidase activity of the physiological saline group as 0%, and the peroxidase activity of the control group as 100%.
When antigen-induced cystitis was caused by carrying out antigen injection into the bladder of each of the sensitized BN rats, and peroxidase activity in the bladder tissue was measured as one of the indexes of cystitis, increase in the peroxidase activity in the bladder tissue was found in the control group. […]

[2] = system: Rat Hydrochloric Acid-Induced Cystitis Model; assay: Rat hydrochloric acid-induced cystitis model: intravesical pressure recording; format: in vivo, Brown Norway (BN) female rats; settings: 1 mg/kg orally once a day for 10 days after 0.4 N HCl into the bladder; measured after 11 days under urethane anesthesia
Protocol: Efficacy of PDE 4 Inhibitors in Rat Hydrochloric Acid-Induced Cystitis Model
A bladder disorder was induced by attaching a urethral catheter to each of Brown Norway (BN) female rats under ether anesthesia and injecting 0.4 N hydrochloric acid into the bladder (0.15 ml per one rat). Starting on the next of the bladder disorder induction, the compound A (1 mg/kg) or a vehicle (0.5% methyl cellulose aqueous solution) was orally administered once a day for 10 days, and respectively used as a compound A administration group and a control group. Also, a group in which physiological saline was injected into the bladder (0.15 ml per one rat), and the vehicle was orally administered once a day for 10 days starting on the next day, was used as a physiological saline group. After 11 days of the bladder disorder induction, each rat was fixed in the supine position under urethane anesthesia and equipped with a urethral catheter, and via its three-way cock, one end was used as the injection passage and the other end was connected to a pressure transducer (DX-312, manufactured by NIHON KOHDEN). Physiological saline was continuously injected into the bladder (50 μl/min) using an infusion pump (model 22, Harvard), and the intravesical pressure at that time was amplified by a pre-amplifier (AP-621G, manufactured by NIHON KOHDEN) and recorded using a recorder. […] In comparison with this, in the case of the control group, increase in the resting time intravesical pressure was observed, but increase in the bladder contraction pressure at the time of micturition was hardly found, and micturition frequency was high. In the compound A administration group, increase of the resting time intravesical pressure was inhibited, and increase in the intravesical pressure accompanied by the micturition reflex was also observed.

[3] = 3 mg/kg orally 1 hour before intravesical antigen (OA) injection

Compound | inhibition of the increase of peroxidase activity in the bladder tissue ([1]; 30 mg/kg orally 1 hour before intravesical antigen (OA) injection) [%] | inhibition of the increase of peroxidase activity in the bladder tissue [1, 3] [%] | increase in the intravesical pressure accompanied by the micturition reflex [2] | increase of the resting time intravesical pressure [2] | interval of the micturition reflex [2]
COc1ccc([C@]2(C#N)CC[C@@H](C(=O)O)CC2)cc1OC1CCCC1 [cilomilast] | 68 | – | – | – | –
CCn1c(=O)c(CCC(=O)O)c(-c2cccc(Cl)c2)c2ccc(C)nc21 [compound A, 3-[4-(3-chlorophenyl)-1-ethyl-7-methyl-2-oxo-1,2-dihydro-1,8-naphthyridin-3-yl]propanoic acid] | – | 72 | observed | inhibited | almost the same as that of the physiological saline administration group
O=C(Nc1c(Cl)cncc1Cl)c1ccc(OC(F)F)c(OCC2CC2)c1 [roflumilast] | – | 79 | – | – | –
